Assay results reported in US5932189A, “Cyclic peptide somatostatin analogs” (Diatech, Inc., priority 1994, dated 1999).
Square brackets hold non-standard residues; d marks the D form. Peptide text beside a SMILES is read from it. * marks the point of attachment. X4 = NCCCC[C@H](NC(=O)[C@H](CS)NC(=O)CNC(=O)[C@@H](N)CCCCNC(=O)C*)C(N)=O; X8 = NC(=O)[C@H](CCC(=O)O)NC(=O)[C@H](CS)NC(=O)CNC(=O)[C@H](CS)NC(=O)C*; X2 = N=C(N)NCCC[C@H](NC(=O)[C@H](CS)NC(=O)CNC(=O)CNC(=O)C*)C(N)=O; X1 = NCCCC[C@H](NC(=O)[C@H](CS)NC(=O)CNC(=O)CNC(=O)C*)C(N)=O; NMeF = CN[C@@H](Cc1ccccc1)C(=O)O; hCys = N[C@@H](CCS)C(=O)O

Biological target: T1, somatostatin receptors (Rattus norvegicus, UniProt P30680)
T1 construct: endogenous in cells; host or cells: AR42J rat pancreatic tumor cell line (membrane preparation)
Assay: Inhibition of binding of (125I-Tyr11)somatostatin-14 to AR42J rat pancreatic tumor cell membranes
Settings: 0.5 nM (125I-Tyr11)somatostatin-14, 25 min at 30° C., Hill plots
Experimental: Inhibition of Binding of (^125 I-Tyr^11)somatostatin-14 to AR42J Rat Pancreatic Tumor Cell Membranes
The rat pancreatic tumor cell line AR42J which expresses the somatostatin receptor was cultured in Dulbecco's minimal essential media (DMEM) supplemented with 10% fetal bovine serum (FBS) and 8 mM glutamine in a humidified 5% CO2 atmosphere at 37° C. in T-flasks. Harvested cells were homogenized in cold 50 mM Tris-HCl buffer (pH 7.4) and the homogenate then centrifuged at 39,000 g for 10 min at 4° C. Pellets were washed once with buffer and then resuspended in an ice-cold solution of 10 mM Tris-HCl (pH 7.4). Equal aliquots of this cell membrane preparation were incubated with (^125 I-Tyr^11)somatostatin-14 (at a final concentration of 0.5 nM and 750,000 cpm/mL, at a specific activity of 2000 Ci/mmol, Amersham, Arlington Heights, Ill.) and peptide at a final concentration of from 10^-11 M to 10^-6 M in a solution of 50 mM HEPES (pH 7.4) containing 1% bovine serum albumin (BSA), 5 mM MgCl2, Trasylol (200,000 International Units), bacitracin (0.02 mg/mL) and phenylmethylsulfonylfluoride (0.02 mg/mL) for 25 min at 30° C. Using a filtration manifold, this mixture was filtered through a polyethyleneimine-washed GC/F filter (Whatman, Maidstone, England), and the residue remaining on the filter washed thrice with 5 mL cold HEPES buffer. The filter and a sample of the filter washings were then counted in a gamma counter. To assess non-specific binding, the assay was performed in the presence of unlabeled somatostatin-14 at 200 nM. Data analysis including Hill plots of the data provided inhibition constants (see Bylund & Yamamura, "Methods of receptor binding", in Methods in Neurotransmitter Receptor Analysis, Yamamura et al., eds., Raven Press: New York, 1990).

T1 sequence (P30680 whole entry): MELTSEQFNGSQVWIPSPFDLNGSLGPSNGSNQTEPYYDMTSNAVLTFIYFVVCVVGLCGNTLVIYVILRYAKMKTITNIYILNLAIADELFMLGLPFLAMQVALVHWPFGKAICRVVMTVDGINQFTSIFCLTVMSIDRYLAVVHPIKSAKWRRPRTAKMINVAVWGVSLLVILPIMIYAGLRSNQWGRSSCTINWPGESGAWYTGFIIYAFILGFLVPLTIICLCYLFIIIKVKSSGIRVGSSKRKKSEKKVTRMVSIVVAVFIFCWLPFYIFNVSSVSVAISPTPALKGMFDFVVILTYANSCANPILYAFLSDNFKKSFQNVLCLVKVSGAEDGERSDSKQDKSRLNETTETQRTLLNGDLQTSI

Row | Ki [nM] | SMILES
1 | 0.26 | C[C@@H](O)[C@@H]1NC(=O)[C@H](CCCCN)NC(=O)[C@@H](Cc2c[nH]c3ccccc23)NC(=O)[C@H](Cc2ccc(O)cc2)NC(=O)[C@H](Cc2ccccc2)N(C)C(=O)[C@H](CCS)NC1=O [cyclo.(N--CH3)F.YWD KT.Hcy] (cyclo(KT[hCys][NMeF]Y[dW]))
2 | 4.2 | CC(C)[C@@H]1NC(=O)[C@H](CCCCN)NC(=O)[C@@H](Cc2c[nH]c3ccccc23)NC(=O)[C@H](Cc2ccc(O)cc2)NC(=O)[C@H](Cc2ccccc2)N(C)C(=O)[C@H](CCSCC(=O)NCCCC[C@H](N)C(=O)NCC(=O)N[C@@H](CS)C(=O)N[C@@H](CCCCN)C(N)=O)NC1=O [cyclo.(N--CH3)F.YWD KV.Hcy(CH2 CO.(ε-K)GCK.amide)] (cyclo([NMeF]Y[dW]KV[hCys](X4)))
3 | 8.5 | CC(C)[C@@H]1NC(=O)[C@H](CCCCN)NC(=O)[C@@H](Cc2c[nH]c3ccccc23)NC(=O)[C@H](Cc2ccc(O)cc2)NC(=O)[C@H](Cc2ccccc2)N(C)C(=O)[C@H](CCSCC(=O)N[C@@H](CS)C(=O)NCC(=O)N[C@@H](CS)C(=O)N[C@@H](CCC(=O)O)C(N)=O)NC1=O [cyclo.(N--CH3)F.YWD KV.Hcy(CH2 CO.CGCE.amide)] (cyclo(KV[hCys](X8)[NMeF]Y[dW]))
4 | 2.5 | CC(C)[C@@H]1NC(=O)[C@H](CCCCN)NC(=O)[C@@H](Cc2c[nH]c3ccccc23)NC(=O)[C@H](Cc2ccc(O)cc2)NC(=O)[C@H](Cc2ccccc2)N(C)C(=O)[C@H](CCSCC(=O)NCC(=O)NCC(=O)N[C@@H](CS)C(=O)N[C@@H](CCCCN)C(N)=O)NC1=O [cyclo.(N--CH3)F.YWD KV.Hcy(CH2 CO.GGCK.amide)] (cyclo([NMeF]Y[dW]KV[hCys](X1)))
5 | 0.29 | CC(C)[C@@H]1NC(=O)[C@H](CCCCN)NC(=O)[C@@H](Cc2c[nH]c3ccccc23)NC(=O)[C@H](Cc2ccc(O)cc2)NC(=O)[C@H](Cc2ccccc2)N(C)C(=O)[C@H](CCSCC(=O)NCC(=O)NCC(=O)N[C@@H](CS)C(=O)N[C@@H](CCCNC(=N)N)C(N)=O)NC1=O [cyclo.(N--CH3)F.YWD KV.Hcy(CH2 CO.GGCR.amide)] (cyclo([NMeF]Y[dW]KV[hCys](X2)))
6 | < 0.01 | CC(C)[C@@H]1NC(=O)[C@H](CCCCN)NC(=O)[C@@H](Cc2c[nH]c3ccccc23)NC(=O)[C@H](Cc2ccc(O)cc2)NC(=O)[C@H](Cc2ccccc2)N(C)C(=O)[C@H](CCS)NC1=O [cyclo.(N--CH3)F.YWD KV.Hcy] (cyclo(KV[hCys][NMeF]Y[dW]))
